From patent US9085555B2, “Complement pathway modulators and uses thereof” (priority 2011, dated 2015) come the findings set out here.

SMILES strings stand for the structures.

The target in the test is Factor D (Homo sapiens (Human), UniProt P00746). Put plainly: biochemical. The format is biochemical. Conditions: read-out: IC50.
Factor D, sequence (P00746 26-253): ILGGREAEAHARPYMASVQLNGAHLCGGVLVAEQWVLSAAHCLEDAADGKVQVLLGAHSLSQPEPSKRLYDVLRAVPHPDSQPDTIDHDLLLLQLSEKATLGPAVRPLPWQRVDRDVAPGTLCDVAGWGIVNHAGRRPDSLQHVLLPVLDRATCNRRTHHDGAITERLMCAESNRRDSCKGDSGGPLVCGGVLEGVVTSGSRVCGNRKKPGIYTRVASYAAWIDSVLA
Turning to `NC(=O)n1cc(NC(=O)N2C[C@@H](N)C[C@H]2C(=O)NCCc2ccccc2Cl)c2ccccc21` [Example 87, (2S,4S)-4-Amino-pyrrolidine-1,2-dicarboxylic acid 1-[(1-carbamoyl-1Hindol-3-yl)-amide] 2-{[2-(2-chloro-phenyl)-ethyl]-amide}], the IC50 came out at 4650 nM.

In the case of `NC(=O)n1cc(CC(=O)N2C[C@H](F)C[C@H]2C(=O)NCc2cccc(Cl)c2F)c2ccccc21` [Example 448, 3-{2-[(2S,4R)-2-(3-Chloro-2-fluoro-benzylcarbamoyl)-4-fluoro-pyrrolidin-1-yl]-2-oxo-ethyl}-indole-1-carboxylic acid amide], the IC50 is 26 nM.

Regarding `NC(=O)n1cc(NC(=O)N2C[C@@H](N)C[C@H]2C(=O)NCCc2cccc(F)c2)c2ccccc21` [Example 89, (2S,4S)-4-Amino-pyrrolidine-1,2-dicarboxylic acid 1-[(1-carbamoyl-1Hindol-3-yl)-amide] 2-{[2-(3-fluoro-phenyl)-ethyl]-amide}], the IC50 turned out to be 7700 nM.

As to `CCc1cccc(NC(=O)[C@@H]2CC3CC3N2C(=O)Nc2cn(C(N)=O)c3ccccc23)n1` (stereo partly drawn) [Example 158, (1R,3S,5R)-2-Aza-bicyclo[3.1.0]hexane-2,3-dicarboxylic acid 2-[(1-carbamoyl-1H-indol-3-yl)-amide] 3-[(6-ethyl-pyridin-2-yl)-amide]], the IC50 was 80 nM.

`CC(=O)N[C@@H]1CN(C(=O)Nc2cn(C(N)=O)c3ccccc23)[C@H](C(=O)NCc2cccc(Cl)c2F)[C@H]1F` [Example 211, (2R,3S,4R)-4-Acetylamino-3-fluoro-pyrrolidine-1,2-dicarboxylic acid 1-[(1-carbamoyl-1H-indol-3-yl)-amide] 2-(3-chloro-2-fluoro-benzylamide)]: the concentration for half-maximal inhibition (IC50) is 1320 nM.

For the compound `Cc1nccc2c(C(N)=O)nn(CC(=O)N3[C@@H]4C[C@@H]4C[C@H]3C(=O)N[C@H](C)c3cccc(Cl)c3F)c12` [Example 693, 1-(2-{(1R,3S,5R)-3-[(R)-1-(3-Chloro-2-fluoro-phenyl)-ethylcarbamoyl]-2-aza-bicyclo[3.1.0]hex-2-yl}-2-oxo-ethyl)-7-methyl-1H-pyrazolo[3,4-c]pyridine-3-carboxylic acid amide], the IC50 worked out at 6 nM.

On to `C[C@@H](NC(=O)[C@@H]1C[C@H]2C[C@H]2N1C(=O)Cn1nc(C(N)=O)c2cc(C(F)(F)F)ncc21)c1cccc(Cl)c1F` [Example 699, 1-(2-{(1R,3S,5R)-3-[(R)-1-(3-Chloro-2-fluoro-phenyl)-ethylcarbamoyl]-2-aza-bicyclo[3.1.0]hex-2-yl}-2-oxo-ethyl)-5-trifluoromethyl-1H-pyrazolo[3,4-c]pyridine-3-carboxylic acid amide], for which the IC50 came out at 118 nM.

For the compound `C[C@@H]1CC[C@@H](C(=O)Nc2cccc(OC(F)(F)F)c2)N1C(=O)Nc1cn(C(N)=O)c2ccccc12` [Example 336, (2S,5R)-5-Methyl-pyrrolidine-1,2-dicarboxylic acid 1-[(1-carbamoyl-1H-indol-3-yl)-amide]2-[(3-trifluoromethoxy-phenyl)-amide]], the IC50 was 750 nM.

In the case of `CN(C)C[C@@H](NC(=O)[C@@H]1C[C@@H](F)CN1C(=O)Nc1cn(C(N)=O)c2ccccc12)c1cccc(Cl)c1F` [Example 248, (2S,4R)-4-Fluoro-pyrrolidine-1,2-dicarboxylic acid 1-[(1-carbamoyl-1H-indol-3-yl)-amide] 2-{[(S)-1-(3-chloro-2-fluoro-phenyl)-2-dimethylamino-ethyl]-amide}], the half-maximal inhibitory concentration (IC50) was determined as 119 nM.

For the compound `NC(=O)n1cc(NC(=O)N2C[C@@H](N)C[C@H]2C(=O)NCc2cccc(F)c2)c2ccccc21` [Example 32, (2S,4S)-4-Amino-pyrrolidine-1,2-dicarboxylic acid 1-[(1-carbamoyl-1H-indol-3-yl)-amide] 2-(3-fluoro-benzylamide)], the IC50 was found to be 3350 nM.

As to `NC(=O)n1cc(NC(=O)N2C[C@@H](N)C[C@H]2C(=O)NCc2cccc(Oc3ccccc3)c2)c2ccccc21` [Example 38, (2S,4S)-4-Amino-pyrrolidine-1,2-dicarboxylic acid 1-[(1-carbamoyl-1H-indol-3-yl)-amide] 2-(3-phenoxy-benzylamide)], the IC50 is 6300 nM.

Consider `NC(=O)n1cc(CC(=O)N2C[C@@](F)(CO)C[C@H]2C(=O)NCc2cccc(Cl)c2F)c2ccccc21` [Example 451, 3-{2-[(2S,4R)-2-(3-Chloro-2-fluoro-benzylcarbamoyl)-4-fluoro-4-hydroxymethyl-pyrrolidin-1-yl]-2-oxo-ethyl}-indole-1-carboxylic acid amide], for which the IC50 is 90 nM.

In the case of `CC(=O)n1cc(CC(=O)N2CCC[C@H]2C(=O)Nc2cccc(OC(F)(F)F)c2)c2ccccc21` [Example 119, (S)-1-[2-(1-Acetyl-1H-indol-3-yl)-acetyl]-pyrrolidine-2-carboxylic acid (3-trifluoromethoxy-phenyl)-amide], the IC50 worked out at 4800 nM.

Take `NC(=O)n1cc(NC(=O)N2C3CC3C[C@H]2C(=O)NCc2ccc(Cl)s2)c2ccccc21` (stereo partly drawn) [Example 155, (1R,3S,5R)-2-Aza-bicyclo[3.1.0]hexane-2,3-dicarboxylic acid 2-[(1-carbamoyl-1H-indol-3-yl)-amide] 3-[(5-chloro-thiophen-2-ylmethyl)-amide]]: the IC50 was 20 nM.

Turning to `NC(=O)n1cc(NC(=O)N2C[C@H](F)C[C@H]2CNS(=O)(=O)c2cccc(OC(F)(F)F)c2)c2ccccc21` [Example 109, 3-({(2S,4R)-4-Fluoro-2-[(3-trifluoromethoxy-benzenesulfonylamino)-methyl]-pyrrolidine-1-carbonyl}-amino)-indole-1-carboxylic acid amide], the IC50 is 2700 nM.

`CC(C)c1cccc(NC(=O)[C@@H]2C[C@H](N)CN2C(=O)Nc2cn(C(N)=O)c3ccccc23)c1` [Example 102, (2S,4S)-4-Amino-pyrrolidine-1,2-dicarboxylic acid 1-[(1-carbamoyl-1H-indol-3-yl)-amide]2-[(3-isopropyl-phenyl)-amide]]: the IC50 was 567 nM.

As to `Cn1nc(C(C)(C)C)cc1NC(=O)[C@@H]1CCCN1C(=O)Nc1cn(C(N)=O)c2ccccc12` [Example 279, (S)-Pyrrolidine-1,2-dicarboxylic acid 2-[(5-tert-butyl-2-methyl-2H-pyrazol-3-yl)-amide] 1-[(1-carbamoyl-1H-indol-3-yl)-amide]], the IC50 was 2900 nM.

For `NC(=O)n1cc(NC(=O)N2[C@@H]3C[C@@H]3C[C@H]2C(=O)Nc2ncccc2F)c2ccccc21` [Example 172, (1R,3S,5R)-2-Aza-bicyclo[3.1.0]hexane-2,3-dicarboxylic acid 2-[(1-carbamoyl-1H-indol-3-yl)-amide] 3-[(3-fluoro-pyridin-2-yl)-amide]], the half-inhibitory concentration (IC50) is 1050 nM.

Consider `COc1ccc2c(C(N)=O)cn(CC(=O)N3C[C@H](F)C[C@H]3C(=O)NCc3cccc(Cl)c3F)c2c1` [Example 499, 1-{2-[(2S,4R)-2-(3-Chloro-2-fluoro-benzylcarbamoyl)-4-fluoro-pyrrolidin-1-yl]-2-oxo-ethyl}-6-methoxy-1H-indole-3-carboxylic acid amide], for which the half-inhibitory concentration (IC50) came to 36 nM.

`NC(=O)n1cc(NC(=O)N2C[C@H](F)C[C@H]2C(=O)NCc2cccc(Cl)c2F)c2ccc(O)cc21` [Example 393, 2S,4R)-4-Fluoro-pyrrolidine-1,2-dicarboxylic acid 1-[(1-carbamoyl-6-hydroxy-1H-indol-3-yl)-amide]2-(3-chloro-2-fluoro-benzylamide]: the concentration for half-maximal inhibition (IC50) amounted to 7 nM.

As for `NC(=O)n1cc(NC(=O)N2C3CC3C[C@H]2C(=O)NCc2cncc(Cl)c2)c2ccccc21` (stereo partly drawn) [Example 228, (1R,3S,5R)-2-Aza-bicyclo[3.1.0]hexane-2,3-dicarboxylic acid 2-[(1-carbamoyl-1H-indol-3-yl)-amide] 3-[(5-chloro-pyridin-3-ylmethyl)-amide]], the concentration for half-maximal inhibition (IC50) came to 100 nM.

Regarding `NC(=O)n1cc(NC(=O)N2C[C@H](N)[C@@H](O)[C@H]2C(=O)NCc2cccc(Cl)c2F)c2ccccc21` [Example 416, 2S,3R,4S)-4-Amino-3-hydroxy-pyrrolidine-1,2-dicarboxylic acid 1-[(1-carbamoyl-1H-indol-3-yl)-amide]2-(3-chloro-2-fluoro-benzylamide], the half-maximal inhibitory concentration (IC50) worked out at 315 nM.

Turning to `NC(=O)n1cc(NC(=O)N2CCC[C@H]2C(=O)Nc2cccc(OC(F)(F)F)c2)c2ccc(Cl)cc21` [Example 291, (S)-Pyrrolidine-1,2-dicarboxylic acid 1-[(1-carbamoyl-6-chloro-1H-indol-3-yl)-amide] 2-[(3-trifluoromethoxy-phenyl)-amide]], the IC50 worked out at 3250 nM.

Take `NC(=O)n1cc(NC(=O)N2C[C@@H](N)C[C@H]2C(=O)NCc2cccc(C(F)(F)F)c2)c2ccccc21` [Example 31, (2S,4S)-4-Amino-pyrrolidine-1,2-dicarboxylic acid 1-[(1-carbamoyl-1H-indol-3-yl)-amide] 2-(3-trifluoromethyl-benzylamide)]: the concentration for half-maximal inhibition (IC50) is 12200 nM.

As to `CC(=O)c1cn(CC(=O)N2C[C@H]3C[C@H]3[C@H]2C(=O)NCc2cccc(Cl)c2F)c2cnccc12` [Example 506, (1R,2S,5S)-3-[2-(3-Acetyl-pyrrolo[2,3-c]pyridin-1-yl)-acetyl]-3-aza-bicyclo[3.1.0] hexane-2-carboxylic acid 3-chloro-2-fluoro-benzylamide], the IC50 was found to be 331 nM.

On to `NC(=O)n1cc(NC(=O)N2C[C@H](F)C[C@H]2C(=O)NC2CCOc3ccc(Cl)cc32)c2ccccc21` (mixture of isomers) [Example 326, (2S,4R)-4-Fluoro-pyrrolidine-1,2-dicarboxylic acid 1-[(1-carbamoyl-1H-indol-3-yl)-amide] 2-[(6-chloro-chroman-4-yl)-amide] (mixture of 2 diastereomers)], for which the IC50 amounted to 7150 nM.

Consider `NC(=O)n1cc(NC(=O)N2CC[C@@H](N)[C@H]2C(=O)N[C@@H](c2cccc(Cl)c2F)C(F)(F)F)c2ccccc21` [Example 419, (2S,3R)-3-Amino-pyrrolidine-1,2-dicarboxylic acid 1-[(1-carbamoyl-1H-indol-3-yl)-amide]2-{[(S)-1-(3-chloro-2-fluoro-phenyl)-2,2,2-trifluoro-ethyl]-amide}], for which the IC50 is 476 nM.
